The text below walks through data of patent US8759535B2, “Substituted fused imidazole derivatives, pharmaceutical compositions, and methods of use thereof” (High Point Pharmaceuticals, LLC, priority 2010, dated 2014).

Counter-ions that a name gives are not always drawn.

The experiment deals with HMOX1. The experiment is described as follows: HMOX1 Protein Assay (immunostaining of HO-1 in NHLF cells, GE InCell 1000). The format is cell-based. The following applies: Homo sapiens, fold change above DMSO treated cells, 16 h; for fold induction at 5 µM: 5 μM compound; for fold induction at 3 µM: 3 μM compound (asterisk). The gist of the method:
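Fold induction of HO-1 over vehicle, normally at 5 μM compound (asterisk marks 3 μM), in 0.8% DMSO medium. Normal human lung fibroblasts were treated 16 h, then paraformaldehyde-fixed, anti-HO-1/Alexa 488 stained with Hoechst, and read by high-content imaging.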

`CCn1c(Nc2nc3ccc(C(F)(F)F)cc3s2)nc2cc(C(=O)NC)ccc21` [Example 180, 1-Ethyl-2-(6-trifluoromethyl-benzothiazol-2-ylamino)-1H-benzoimidazole-5-carboxylic acid methylamide]: the fold induction at 5 µM turned out to be 12.4. As to `CC(O)CNC(=O)c1cnc2c(c1)nc(Nc1nc3ccc(OC(F)(F)F)cc3s1)n2C` (centres unmarked) [Example 78, 3-Methyl-2-(6-trifluoromethoxy-benzothiazol-2-ylamino)-3H-imidazo[4,5-b]pyridine-6-carboxylic acid (2-hydroxy-propyl)-amide], the fold induction at 5 µM was 28.6.

The compound `Cn1c(Nc2nc3ccc(Cl)cc3s2)nc2cc(C(=O)NCCN3CCOCC3)ccc21` [Example 340, 2-(6-Chloro-benzothiazol-2-ylamino)-1-methyl-1H-benzoimidazole-5-carboxylic acid (2-morpholin-4-yl-ethyl)-amide] displayed a fold induction at 3 µM of 14.4. As for `Cn1c(Nc2nc3ccc(OC(F)(F)F)cc3s2)nc2cc(C(=O)NCCOCCO)ccc21` [Example 46, 1-Methyl-2-(6-trifluoromethoxy-benzothiazol-2-ylamino)-1H-benzoimidazole-5-carboxylic acid [2-(2-hydroxy-ethoxy)-ethyl]-amide], the fold induction at 5 µM was determined as 17.9. Compound `Cn1c(Nc2nc3cc(F)c(F)cc3s2)nc2cc(C(=O)NCCO)ccc21` [Example 36, 2-(5,6-Difluoro-benzothiazol-2-ylamino)-1-methyl-1H-benzoimidazole-5-carboxylic acid (2-hydroxy-ethyl)-amide] gave a fold induction at 5 µM of 13.8. In turn, `Cn1c(Nc2nc3ccc(OC(F)(F)F)cc3s2)nc2cc(C(=O)NCCOCC(C)(C)O)ccc21` [Example 245, 1-Methyl-2-(6-trifluoromethoxy-benzothiazol-2-ylamino)-1H-benzoimidazole-5-carboxylic acid [2-(2-hydroxy-2-methyl-propoxy)-ethyl]-amide] displayed a fold induction at 5 µM of 33.1. The same measure, in the same setting: next, `Cn1c(Nc2nc3cc(F)c(F)cc3s2)nc2cc(C(=O)O)ccc21` [Example 34, 2-(5,6-Difluoro-benzothiazol-2-ylamino)-1-methyl-1H-benzoimidazole-5-carboxylic acid]: 15.4. `COCCNC(=O)c1ccc2c(c1)nc(Nc1nc3ccc(OC(F)(F)F)cc3s1)n2CCF` [Example 171, 1-(2-Fluoro-ethyl)-2-(6-trifluoromethoxy-benzothiazol-2-ylamino)-1H-benzoimidazole-5-carboxylic acid (2-methoxy-ethyl)-amide]: the fold induction at 5 µM was 22.8. The same measure, in the same setting: to `CN1CCC(NC(=O)CNC(=O)c2ccc3c(c2)nc(Nc2nc4ccc(Cl)cc4s2)n3C)CC1` [Example 386, 2-(6-Chloro-benzothiazol-2-ylamino)-1-methyl-1H-benzoimidazole-5-carboxylic acid [(1-methyl-piperidin-4-ylcarbamoyl)-methyl]-amide] belongs 58.3. For `CNC(=O)c1ccc2c(c1)nc(Nc1nc3ccc(F)cc3s1)n2C` [Example 124, 2-(6-Fluoro-benzothiazol-2-ylamino)-1-methyl-1H-benzimidazole-5-carboxylic acid methylamide], the fold induction at 5 µM came out at 22.9. In the case of `CCOc1ccc2nc(Nc3nc4cc(C(=O)NCC(=O)N(C)C)ccc4n3C)sc2c1` [Example 364, 2-(6-Ethoxy-benzothiazol-2-ylamino)-1-methyl-1H-benzoimidazole-5-carboxylic acid dimethylcarbamoylmethyl-amide], the fold induction at 3 µM was determined as 27.8. As to `CO[C@H]1CCN(C(=O)CNC(=O)c2ccc3c(c2)nc(Nc2nc4ccc(Cl)cc4s2)n3C)C1` [Example 409, 2-(6-Chloro-benzothiazol-2-ylamino)-1-methyl-1H-benzoimidazole-5-carboxylic acid [2-((S)-3-methoxy-pyrrolidin-1-yl)-2-oxo-ethyl]-amide], the fold induction at 3 µM stood at 29. For the compound `COC(=O)c1ccc2c(c1)nc(Nc1nc3ccc(Cl)cc3s1)n2C` [Example 28, 2-(6-Chloro-benzothiazol-2-ylamino)-1-methyl-1H-benzoimidazole-5-carboxylic acid methyl ester], the fold induction at 5 µM is 10.1. On the same count and under the same terms, to `CN(C)C(=O)C1(NC(=O)c2ccc3c(c2)nc(Nc2nc4ccc(OC(F)(F)F)cc4s2)n3C)CC1` [Example 150, 1-Methyl-2-(6-trifluoromethoxy-benzothiazol-2-ylamino)-1H-benzimidazole-5-carboxylic acid (1-dimethylcarbamoyl-cyclopropyl)-amide] belongs 41.6.

Take `CN(C)C(=O)[C@H](CCCCN)NC(=O)c1ccc2c(c1)nc(Nc1nc3ccc(C(F)(F)F)cc3s1)n2C` [Example 369, 1-Methyl-2-(6-trifluoromethyl-benzothiazol-2-ylamino)-1H-benzoimidazole-5-carboxylic acid ((S)-5-amino-1-dimethylcarbamoyl-pentyl)-amide hydrochloride]: the fold induction at 3 µM was determined as 22.4. `Cn1c(Nc2nc3ccc(Cl)cc3s2)nc2cc(C(=O)NCC(=O)N3CCOCC3)ccc21` [Example 421, 2-(6-Chloro-benzothiazol-2-ylamino)-1-methyl-1H-benzoimidazole-5-carboxylic acid (2-morpholin-4-yl-2-oxo-ethyl)-amide] registered a fold induction at 5 µM of 32.2. The same measure, in the same setting: to `CNCCOCCNC(=O)c1ccc2c(c1)nc(Nc1nc3ccc(OC(F)(F)F)cc3s1)n2C` [Example 271, 1-Methyl-2-(6-trifluoromethoxy-benzothiazol-2-ylamino)-1H-benzoimidazole-5-carboxylic acid [2-(2-methylamino-ethoxy)-ethyl]-amide hydrochloride] belongs 69.9. Consider `C[C@H](NC(=O)c1ccc2c(c1)nc(Nc1nc3ccc(C(F)(F)F)cc3s1)n2C)C(=O)N(C)C` [Example 463, 1-Methyl-2-(6-trifluoromethyl-benzothiazol-2-ylamino)-1H-benzoimidazole-5-carboxylic acid ((S)-1-dimethylcarbamoyl-ethyl)-amide], for which the fold induction at 3 µM turned out to be 26.7. The compound `Cn1c(Nc2nc3ccc(OC(F)(F)F)cc3s2)nc2cc(C(=O)N(CCO)CCO)ccc21` [Example 284, 1-Methyl-2-(6-trifluoromethoxy-benzothiazol-2-ylamino)-1H-benzoimidazole-5-carboxylic acid bis-(2-hydroxy-ethyl)-amide] returned a fold induction at 5 µM of 47.4. On to `CCn1c(Nc2nc3ccc(OC(F)(F)F)cc3s2)nc2cc(C(=O)OC)ccc21` [Example 153, 1-Ethyl-2-(6-trifluoromethoxy-benzothiazol-2-ylamino)-1H-benzoimidazole-5-carboxylic acid methyl ester], for which the fold induction at 5 µM was 4. Compound `Cn1c(Nc2nc3ccc(OC(F)(F)F)cc3s2)nc2cc(C(=O)NCC(=O)N3CCCC3)ccc21` [Example 141, 1-Methyl-2-(6-trifluoromethoxy-benzothiazol-2-ylamino)-1H-benzimidazole-5-carboxylic acid (2-oxo-2-pyrrolidin-1-yl-ethyl)-amide] came in with a fold induction at 5 µM of 23.1. Same read-out and setting: next, `COCC(C)NC(=O)c1ccc2c(c1)nc(Nc1nc3ccc(OC(F)(F)F)cc3s1)n2C` (centres unmarked) [Example 20, 1-Methyl-2-(6-trifluoromethoxy-benzothiazol-2-ylamino)-1H-benzoimidazole-5-carboxylic acid (2-methoxy-1-methyl-ethyl)-amide]: 18.6; `Cn1c(Nc2nc3ccc(Cl)cc3s2)nc2cc(C(=O)NCC(=O)N3CCSCC3)ccc21` [Example 423, 2-(6-Chloro-benzothiazol-2-ylamino)-1-methyl-1H-benzoimidazole-5-carboxylic acid (2-oxo-2-thiomorpholin-4-yl-ethyl)-amide]: 30.2.

`Cn1c(Nc2nc3ccc(Cl)cc3s2)nc2cc(C(=O)N[C@H]3CC[C@H](O)CC3)ccc21` [Example 225, 2-(6-Chloro-benzothiazol-2-ylamino)-1-methyl-1H-benzoimidazole-5-carboxylic acid (trans-4-hydroxy-cyclohexyl)-amide]: the fold induction at 3 µM was found to be 17.7. For the compound `CN(C)CCOCCNC(=O)c1ccc2c(c1)nc(Nc1nc3ccc(OC(F)(F)F)cc3s1)n2C` [Example 273, 1-Methyl-2-(6-trifluoromethoxy-benzothiazol-2-ylamino)-1H-benzoimidazole-5-carboxylic acid [2-(2-dimethylamino-ethoxy)-ethyl]-amide], the fold induction at 5 µM worked out at 25.3.

`Cn1c(Nc2nc3ccc(OC(F)(F)F)cc3s2)nc2cc(C(=O)NCCN3CCOCC3)cnc21` [Example 77, 3-Methyl-2-(6-trifluoromethoxy-benzothiazol-2-ylamino)-3H-imidazo[4,5-b]pyridine-6-carboxylic acid (2-morpholin-4-yl-ethyl)-amide] yielded a fold induction at 5 µM of 31.4. For `CNCCn1c(Nc2nc3ccc(OC(F)(F)F)cc3s2)nc2cc(C(=O)NCCOCCO)ccc21` [Example 239, 1-(2-Methylamino-ethyl)-2-(6-trifluoromethoxy-benzothiazol-2 ylamino)-1H-benzoimidazole-5-carboxylic acid[2-(2-hydroxy-ethoxy)-ethyl]-amide hydrochloride], the fold induction at 3 µM is 10.

The compound `C[C@H](CO)OCCNC(=O)c1ccc2c(c1)nc(Nc1nc3ccc(OC(F)(F)F)cc3s1)n2C` [Example 242, 1-Methyl-2-(6-trifluoromethoxy-benzothiazol-2-ylamino)-1H-benzoimidazole-5-carboxylic acid [2-((R)-2-hydroxy-1-methyl-ethoxy)-ethyl]-amide] had a fold induction at 3 µM of 28.1. Consider `COCCn1c(Nc2nc3ccc(OC(F)(F)F)cc3s2)nc2cc(C(=O)NCCOCCO)ccc21` [Example 241, 1-(2-Methoxy-ethyl)-2-(6-trifluoromethoxy-benzothiazol-2-ylamino)-1H-benzoimidazole-5-carboxylic acid [2-(2-hydroxy-ethoxy)-ethyl]-amide], for which the fold induction at 5 µM worked out at 23.7.
